# Test results as given in patent publication US4107298A, “Antigenically active polypeptide and a process for its preparation” (AB Bonnierforetagen, priority 1976, dated 1978).
# No end group written: not given here.
# Tested on: antibodies specific to TPA (prepared by using natural cancer antigen, CAPA or TPA)
# Assay: hemagglutination inhibition test
# Assay type: binding
# Details: for immunological activity after coupling to inert albumin: coupled to inert bovine albumin, molar ratio about 1:1, by water soluble carbodiimide (EDC)
# Excerpt: The polypeptide prepared according to the foregoing was investigated with regard to its ability to inhibit the hemagglutination reaction between tanned red sheep blood cells labelled with natural cancer antigen and antibodies prepared by using natural cancer antigen (CAPA or TPA). With regard to details concerning this technique reference is had to the above-identified Swedish patent application 73-08917-9 and U.S. Pat. No. 3,960,827. […] Said Unit for specific activity is defined as 1/6 of the quantity active polypeptide required to label 10^9 sheep blood cells so as to be fully agglutinated by a minimum number or amount of antibodies (maximum dilution of antibodies).
# In Example 1 as described above the antigenic activity of the synthesized polypeptide was determined in the following manner.
# For quantitative determination of the amount of polypeptide 7 mgs of the peptide are dissolved in 1.4 mls of buffer grade serum, i.e. a physiological saline solution containing 2% of inert human serum and buffered to a pH of about 7.5 with a phosphate buffer. Under serial dilution a series of samples of said solution having a decreasing polypeptide concentration is prepared and to each of said samples there is added a pre-determined amount of anti-serum containing antibodies specific to TPA. To each of the resulting samples there is then added, after incubation, a predetermined amount of the polypeptide carried on a particulate carrier, hemagglutination taking place to an extent corresponding to the amount of available antibodies. In parallel there is prepared a corresponding series of control samples containing known decreasing amounts of TPA. The diameters of the hemagglutination depositions of the control samples are then measured in their respective cavities on a serial dilution test plate, and the values of the diameters obtained are plotted against the TPA concentrations, an S-shaped curve being obtained, the intermediate part of which including an inflexion point as a steep inclination. The corresponding curve of the diameter of the depositions from the hemagglutination as a function of the TPA-concentrations is shown in the diagram of the appended drawing, as curve B.
# In the same diagram the corresponding curve for the synthesized polypeptide is shown as A, and with knowledge of the specific activity of the TPA the specific activity of the synthesized polypeptide is found to be 0.024 Units per milligram of peptide.
sequence,measurement,setting,value
TDLDDRLAKYLDKVRALEAADGELEV [Example 2],immunological activity compared with the polypeptide of Example 1,,about equally immunologically active
ALLNDILAQYLDLVRALEAANGRLEV [Example 25],immunological activity compared with the polypeptide of Example 1,,about equally immunologically active
LNDELAQYLDLVRALEAANGRLEV [Example 4],immunological activity compared with the polypeptide of Example 1,,about equally immunologically active
same,immunological activity after coupling to inert albumin,,maintained
ALLNDELAQYLDLVRALEAANGQLEV [Example 1],activity lowered,"basic environment only, pH 13, same period of time, no cyclohexanedione",about 20%
same,loss of activity,centrally positioned arginine A0 blocked with cyclohexanedione at pH 13,99.5%
same,specific activity,"inhibition of hemagglutination between tanned red sheep blood cells labelled with natural cancer antigen and anti-TPA antibodies, compared with the TPA control curve",0.024 U/mg
same,activity disappears,"treated with iodine at pH 9.5, 100 times excess",40-50%
same,activity lost,"treated with iodine at pH 9.5, 1000 times excess",about 75%
same,activity lost,"treated with iodine at pH 9.5, excess of about 10000 times in relation to tyrosine content",about 85%
same,activity of the polypeptide,"treated with iodine at pH 9.5, excess of only about 10 times",not effected
"DDRLAKYLDKVRALEAADG [Example 6, Asp Asp Arg Leu Ala Lys Tyr Leu Asp Lys Val Arg Ala Leu Glu Ala Ala Asp Gly]",immunological activity compared with the polypeptide of Example 1,,about equally immunologically active
"AQYLDLVRALEAANGELEV [Example 3, Ala Gln Tyr Leu Asp Leu Val Arg Ala Leu Glu Ala Ala Asn Gly Glu Leu Glu Val]",immunological activity compared with the polypeptide of Example 1,,about equally immunologically active
same,immunological activity after coupling to inert albumin,,maintained
"NDILAQYLDLVRALEAANG [Example 5, Asn Asp Ile Leu Ala Gln Tyr Leu Asp Leu Val Arg Ala Leu Glu Ala Ala Asn Gly]",immunological activity compared with the polypeptide of Example 1,,about equally immunologically active
